The values below come from ChEMBL document CHEMBL5620386, “Synthesis, biological screening and in silico studies of new N-phenyl-4-(1,3-diaryl-1H-pyrazol-4-yl)thiazol-2-amine derivatives as potential antifungal and antitubercular agents” (Eur J Med Chem, 2023).

≈ marks a conversion by molar mass, not a printed value. Where “and” joins values, the source holds several entries; their conditions need not be identical. Equal entries are not always repeated. Calls of active or inactive are those of the source. The rule behind the calls is not given here.

Series [1] relates to Proteus mirabilis. The experiment in a line: Antimicrobial activity against Proteus mirabilis NCIM 2388 assessed as zone of inhibition by well diffusion method. The series is classed as functional. On the technique in general: Agar diffusion results depend on both activity and mobility in agar.
In series [2] the test system is Bacillus subtilis. Nature of the series: Antimicrobial activity against Bacillus subtilis NCIM 2063 assessed as zone of inhibition by well diffusion method. The series is classed as functional.
The subject of series [3] is Staphylococcus aureus. Nature of the series: Antimicrobial activity against Staphylococcus aureus NCIM 2178 assessed as zone of inhibition by well diffusion method. Format: functional.
Series [4] concerns Proteus mirabilis. The experiment in a line: Antimicrobial activity against Proteus mirabilis NCIM 2388 assessed as absence of growth by well diffusion method. Format: functional.
The subject of series [5] is Bacillus subtilis. Nature of the series: Antimicrobial activity against Bacillus subtilis NCIM 2063 assessed as absence of growth by well diffusion method. Format: functional.
For series [6], the system named is Staphylococcus aureus. Nature of the series: Antimicrobial activity against Staphylococcus aureus NCIM 2178 assessed as absence of growth by well diffusion method. The series is classed as functional.
The subject of series [7] is Aspergillus niger. The experiment in a line: Antifungal activity against Aspergillus niger ATCC 504 assessed as absence of growth by well diffusion method. Format: functional.
For another series, the system named is Candida albicans. Nature of the series: Antifungal activity against Candida albicans NCIM 3100 assessed as zone of inhibition by well diffusion method. The series is classed as functional.
The test system of the next series is Escherichia coli. Nature of the series: Antimicrobial activity against Escherichia coli NCIM 2574 assessed as zone of inhibition by well diffusion method. The series is classed as functional.
Series [8] relates to Aspergillus niger. The experiment in a line: Antifungal activity against Aspergillus niger ATCC 504 assessed as zone of inhibition by well diffusion method. Format: functional.
Series [9] deals with Mycobacterium tuberculosis. Nature of the series: Antitubercular activity Mycobacterium tuberculosis H37Rv strain ATCC No- 27294 assessed as prevention of color change from blue to pink using Almar Blue measured after 24 hrs by MABA assay. The series is classed as functional.
The nature of series [10]: Cytotoxicity against mouse 3T3-L1 cells assessed as cell viability at 12.5 ug/ml measured after 24 hrs by MTT assay relative to control. The series is classed as toxicity, cell-based. The note with it: at 12.5 µg/mL, read-out: Activity. (In general: Tetrazolium assays rely on reduction of a dye to a coloured formazan, in cell work by metabolically active cells.)
Series [11] in a line: Cytotoxicity against mouse 3T3-L1 cells assessed as cell viability at 25 ug/ml measured after 24 hrs by MTT assay relative to control. Particulars: at 25 µg/mL, read-out: Activity. The series is classed as toxicity, cell-based.

What is called MIC is the least concentration at which growth counts as inhibited. For the molecule `CN[C@@H]1[C@H](O[C@H]2[C@H](O[C@H]3[C@H](O)[C@@H](O)[C@H](N=C(N)N)[C@@H](O)[C@@H]3N=C(N)N)O[C@@H](C)[C@]2(O)C=O)O[C@@H](CO)[C@H](O)[C@H]1O` [STREPTOMYCIN], the “inhibition zone (IZ)” value with Proteus mirabilis [1] is 21 mm; with Bacillus subtilis [2], 18.5 mm; with Staphylococcus aureus [3], 21 mm. The MIC in the series on Proteus mirabilis [4] is 7.82 µg/mL and 25.5 µM; in the series on Bacillus subtilis [5] it was 7.82 µg/mL and 13.4 µM; with Staphylococcus aureus [6], 7.82 µg/mL and 13.4 µM. Moreover, the MIC result in the series with Aspergillus niger [7] is “inactive”.
As for `OC(Cn1cncn1)(Cn1cncn1)c1ccc(F)cc1F` [FLUCONAZOLE], the “inhibition zone (IZ)” value in the series with Candida albicans turned out to be 21.6 mm. The MIC result with Proteus mirabilis [4], in the series with Bacillus subtilis [5] and in the series with Staphylococcus aureus [6] was “inactive” in each case. The MIC with Aspergillus niger [7] is 7.82 µg/mL and 25.5 µM.
Take `COc1ccc(Nc2nc(-c3cn(-c4ccc(F)cc4)nc3-c3ccc(F)cc3)cs2)cc1`: the “inhibition zone (IZ)” value in the series with Escherichia coli is “inactive”. Moreover, the “inhibition zone (IZ)” value in the series on Proteus mirabilis [1] is 14 mm; in the series on Bacillus subtilis [2], 12 mm; with Staphylococcus aureus [3] it was 15 mm; with Candida albicans it was 11.6 mm; with Aspergillus niger [8] it was 19 mm. For the same molecule, the MIC in the series with Proteus mirabilis [4] is 125 µg/mL (≈ 271 µM); in the series on Bacillus subtilis [5], 7.82 µg/mL (≈ 17 µM); in the series with Staphylococcus aureus [6], 125 µg/mL (≈ 271 µM); in the series with Aspergillus niger [7] it was 15.6 µg/mL and 34 µM; in [9] it was 3.12 µg/mL and 6.78 µM. The viability at 24 h, 12.5 ug/ml in [10] is 113%. The viability at 24 h, 25 ug/ml in series [11] worked out at 102%.
With `Fc1ccc(-c2nn(-c3ccc(F)cc3)cc2-c2csc(Nc3ccc(Cl)cc3)n2)cc1`, the “inhibition zone (IZ)” value was 12 mm in the series with Escherichia coli; 15 mm with Proteus mirabilis [1]; 14 mm with Bacillus subtilis [2]; 14 mm with Staphylococcus aureus [3]; 10 mm in the series on Candida albicans; 19.6 mm with Aspergillus niger [8]. Moreover, the MIC in the series on Proteus mirabilis [4] is 125 µg/mL (≈ 269 µM); in the series on Bacillus subtilis [5] it was 125 µg/mL (≈ 269 µM); in the series on Staphylococcus aureus [6], 125 µg/mL (≈ 269 µM); in the series on Aspergillus niger [7] it was 15.6 µg/mL and 33.7 µM; in series [9], 25 µg/mL and 53.9 µM.
In the case of `c1ccc(Nc2nc(-c3cn(-c4ccccc4)nc3-c3ccccc3)cs2)cc1`, in the series with Escherichia coli, the “inhibition zone (IZ)” value is “inactive”. Further, the “inhibition zone (IZ)” value stood at 15 mm in the series on Proteus mirabilis [1]; 11.2 mm in the series with Bacillus subtilis [2]; 16 mm in the series on Staphylococcus aureus [3]; 11.2 mm in the series with Candida albicans; 18.8 mm with Aspergillus niger [8]. The MIC was 125 µg/mL (≈ 317 µM) in the series with Proteus mirabilis [4]; 62.5 µg/mL and 1590 µM in the series with Staphylococcus aureus [6]; 15.6 µg/mL and 39.6 µM with Aspergillus niger [7]; 1.6 µg/mL and 4.06 µM in series [9]. The viability at 24 h, 12.5 ug/ml in series [10] is 97.5%. Moreover, the viability at 24 h, 25 ug/ml in [11] was 90.5%.
In the case of `Fc1ccc(-c2nn(-c3ccc(F)cc3)cc2-c2csc(Nc3ccccc3)n2)cc1`, the “inhibition zone (IZ)” value in the series with Escherichia coli is “inactive”. For the same molecule, the “inhibition zone (IZ)” value in the series on Proteus mirabilis [1] amounted to 15.2 mm; in the series on Bacillus subtilis [2] it was 14 mm; in the series on Staphylococcus aureus [3], 15 mm; with Candida albicans, 12.2 mm; in the series on Aspergillus niger [8] it was 19.25 mm. Also, the minimum inhibitory concentration (MIC) with Proteus mirabilis [4] is 125 µg/mL (≈ 290 µM); in the series on Bacillus subtilis [5], 125 µg/mL (≈ 290 µM); with Staphylococcus aureus [6], 125 µg/mL (≈ 290 µM); in the series on Aspergillus niger [7] it was 15.6 µg/mL and 36.3 µM; in series [9], 25 µg/mL and 58.1 µM.
Turning to `Cc1ccc(Nc2nc(-c3cn(-c4ccc(F)cc4)nc3-c3ccccc3)cs2)cc1`, the “inhibition zone (IZ)” value in the series on Escherichia coli is “inactive”. The “inhibition zone (IZ)” value with Proteus mirabilis [1] was determined as 14.2 mm; with Bacillus subtilis [2] it was 14.2 mm; with Staphylococcus aureus [3], 17 mm; in the series with Candida albicans, 10.2 mm; with Aspergillus niger [8], 18.6 mm. Besides, the MIC was 125 µg/mL (≈ 293 µM) in the series with Proteus mirabilis [4]; 125 µg/mL (≈ 293 µM) in the series with Bacillus subtilis [5]; 62.5 µg/mL and 147 µM in the series with Staphylococcus aureus [6]; 15.6 µg/mL and 36.7 µM in the series on Aspergillus niger [7]; 3.12 µg/mL and 7.34 µM in [9]. The viability at 24 h, 12.5 ug/ml in series [10] turned out to be 102%. The viability at 24 h, 25 ug/ml in series [11] is 96.2%.
With `COc1ccc(Nc2nc(-c3cn(-c4ccccc4)nc3-c3ccc(Cl)cc3)cs2)cc1`, the “inhibition zone (IZ)” value in the series on Escherichia coli is “inactive”. Besides, the “inhibition zone (IZ)” value in the series on Proteus mirabilis [1] came to 14 mm; in the series on Bacillus subtilis [2], 14.8 mm; in the series with Staphylococcus aureus [3], 15 mm; with Candida albicans it was 10 mm; in the series with Aspergillus niger [8] it was 18.2 mm. For the same molecule, the MIC was 125 µg/mL (≈ 272 µM) in the series with Proteus mirabilis [4]; 125 µg/mL (≈ 272 µM) in the series on Bacillus subtilis [5]; 125 µg/mL (≈ 272 µM) in the series on Staphylococcus aureus [6]; 15.6 µg/mL and 32.5 µM with Aspergillus niger [7]; 1.6 µg/mL and 3.49 µM in [9].
Turning to `Clc1ccc(Nc2nc(-c3cn(-c4ccccc4)nc3-c3ccc(Cl)cc3)cs2)cc1`, in the series with Escherichia coli, the “inhibition zone (IZ)” value was “inactive”. Also, the “inhibition zone (IZ)” value amounted to 14 mm in the series with Proteus mirabilis [1]; 11.6 mm in the series with Bacillus subtilis [2]; 14.2 mm in the series on Staphylococcus aureus [3]; 10.4 mm with Candida albicans; 17.4 mm in the series on Aspergillus niger [8]. Besides, the minimum inhibitory concentration (MIC) in the series on Proteus mirabilis [4] is 125 µg/mL (≈ 270 µM); with Staphylococcus aureus [6] it was 125 µg/mL (≈ 270 µM); in the series with Aspergillus niger [7] it was 31.2 µg/mL and 67.5 µM; in series [9], 1.6 µg/mL and 3.46 µM. The viability at 24 h, 12.5 ug/ml in [10] came out at 118%. The viability at 24 h, 25 ug/ml in series [11] amounted to 99.2%.
On to `Cc1ccc(Nc2nc(-c3cn(-c4ccc(F)cc4)nc3-c3ccc(Cl)cc3)cs2)cc1`, for which the “inhibition zone (IZ)” value in the series on Escherichia coli is “inactive”. Moreover, the “inhibition zone (IZ)” value stood at 15 mm in the series on Proteus mirabilis [1]; 12.2 mm in the series on Bacillus subtilis [2]; 17 mm in the series with Staphylococcus aureus [3]; 10.8 mm in the series with Candida albicans; 20.2 mm in the series with Aspergillus niger [8]. Moreover, the MIC with Proteus mirabilis [4] was 125 µg/mL (≈ 271 µM); with Staphylococcus aureus [6], 62.5 µg/mL and 136 µM; in the series with Aspergillus niger [7] it was 15.6 µg/mL and 34 µM; in [9] it was 1.6 µg/mL and 3.47 µM. Besides, the viability at 24 h, 12.5 ug/ml in [10] turned out to be 72%. Also, in series [11], the viability at 24 h, 25 ug/ml worked out at 91.3%.
For `Fc1ccc(-n2cc(-c3csc(Nc4ccc(Cl)cc4)n3)c(-c3ccccc3)n2)cc1`, the “inhibition zone (IZ)” value in the series on Escherichia coli is on record as 13 mm; in the series on Proteus mirabilis [1], 15 mm; in the series with Bacillus subtilis [2] it was 13 mm; in the series on Staphylococcus aureus [3] it was 16 mm; with Candida albicans, 10.8 mm; in the series with Aspergillus niger [8] it was 18.8 mm. In addition, the MIC is 125 µg/mL (≈ 280 µM) in the series on Proteus mirabilis [4]; 62.5 µg/mL and 140 µM in the series with Staphylococcus aureus [6]; 15.6 µg/mL and 35 µM in the series with Aspergillus niger [7]; 3.12 µg/mL and 7.01 µM in series [9]. Besides, in [10], the viability at 24 h, 12.5 ug/ml turned out to be 102%. Moreover, in series [11], the viability at 24 h, 25 ug/ml was determined as 46%.
Take `Cc1ccc(Nc2nc(-c3cn(-c4ccc(F)cc4)nc3-c3ccc(F)cc3)cs2)cc1`: the “inhibition zone (IZ)” value in the series with Escherichia coli was “inactive”. For the same molecule, the “inhibition zone (IZ)” value with Proteus mirabilis [1] amounted to 15 mm; with Bacillus subtilis [2] it was 18 mm; in the series with Staphylococcus aureus [3], 13 mm; in the series on Candida albicans, 10.2 mm; in the series with Aspergillus niger [8], 18.6 mm. Further, the MIC in the series on Proteus mirabilis [4] is 125 µg/mL (≈ 281 µM); with Bacillus subtilis [5] it was 15.6 µg/mL and 35.2 µM; with Aspergillus niger [7], 15.6 µg/mL and 35.2 µM; in series [9], 3.12 µg/mL and 7.03 µM. Moreover, the viability at 24 h, 12.5 ug/ml in [10] worked out at 99.5%. For the same molecule, the viability at 24 h, 25 ug/ml in [11] is 114%.
